Assay results as given in patent US20080009418A1, “Selective Inhibitors” (Alchemia LTD., priority 2004, published 2008).

Legend:
Human neurokinin (NK1) = molecular target: T1, Human neurokinin (NK1) (Homo sapiens, UniProt P25103); experiment: Radioligand binding, human neurokinin NK1 membranes, filtration, [125I]-Substance P; conditions: compound at 10 μM
T1 construct: purchased Perkin Elmer Biosignal
Summary of the method: (§1)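 Percent inhibition of radioligand binding measured on recombinant human membranes: NK1 with [125I]-Substance P, KOP with [3H]-Diprenorphine. Incubation 1 h at room temperature, then harvest onto 0.3% PEI-soaked filters, cold Tris-HCl pH 7.4 washes and scintillation counting; non-specific binding from reference ligand wells.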

Human μ-opioid (MOP) = molecular target: T2, Human μ-opioid (MOP) (Homo sapiens, UniProt P35372); experiment: Radioligand binding, human μ-opioid (MOP) membranes, FlashPlate, [3H]-Naloxone; conditions: compound at 10 μM
T2 construct: purchased Perkin Elmer Biosignal
T2 sequence (P35372 whole entry): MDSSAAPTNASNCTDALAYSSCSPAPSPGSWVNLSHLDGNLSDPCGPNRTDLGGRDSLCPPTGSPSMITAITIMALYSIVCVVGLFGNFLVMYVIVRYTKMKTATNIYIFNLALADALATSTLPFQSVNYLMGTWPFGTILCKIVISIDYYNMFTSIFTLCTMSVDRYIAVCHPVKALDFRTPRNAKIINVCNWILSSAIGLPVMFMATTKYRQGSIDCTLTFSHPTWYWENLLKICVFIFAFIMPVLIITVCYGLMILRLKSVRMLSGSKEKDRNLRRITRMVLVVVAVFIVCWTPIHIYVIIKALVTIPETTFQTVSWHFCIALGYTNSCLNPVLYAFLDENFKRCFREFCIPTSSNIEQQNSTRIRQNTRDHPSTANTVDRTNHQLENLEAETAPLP
Summary of the method: (§2)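 Cloned human receptor membranes were coated onto FlashPlate wells and incubated with radioligand and compound (added from a 0.5 mM DMSO daughter plate) for 1 hour at room temperature in the dark. Scintillation counting gave percent inhibition, with DMSO defining total and reference ligand defining non-specific binding.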

Human melanocortin (MC5) = molecular target: T3, Human melanocortin (MC5) (Homo sapiens, UniProt P33032); experiment: Radioligand binding, human melanocortin MC5 membranes, FlashPlate, [125I]-NDP-αMSH; conditions: compound at 10 μM
T3 construct: purchased Perkin Elmer Biosignal
T3 sequence (P33032 whole entry): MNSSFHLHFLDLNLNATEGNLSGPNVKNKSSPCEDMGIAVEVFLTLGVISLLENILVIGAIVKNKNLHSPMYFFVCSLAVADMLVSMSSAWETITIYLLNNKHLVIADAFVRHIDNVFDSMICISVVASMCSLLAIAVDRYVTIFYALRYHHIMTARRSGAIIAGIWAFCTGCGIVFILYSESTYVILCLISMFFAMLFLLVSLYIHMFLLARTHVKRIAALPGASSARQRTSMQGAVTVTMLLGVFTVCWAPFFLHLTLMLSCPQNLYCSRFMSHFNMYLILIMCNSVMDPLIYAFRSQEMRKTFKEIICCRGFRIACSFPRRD
Summary of the method: as §2

Human δ-opioid (DOP) = molecular target: T4, Human δ-opioid (DOP) (Homo sapiens, UniProt P41143); experiment: Radioligand binding, human δ-opioid (DOP) membranes, FlashPlate, [3H]-Bremazocine; conditions: compound at 10 μM
T4 construct: purchased Perkin Elmer Biosignal
T4 sequence (P41143 whole entry): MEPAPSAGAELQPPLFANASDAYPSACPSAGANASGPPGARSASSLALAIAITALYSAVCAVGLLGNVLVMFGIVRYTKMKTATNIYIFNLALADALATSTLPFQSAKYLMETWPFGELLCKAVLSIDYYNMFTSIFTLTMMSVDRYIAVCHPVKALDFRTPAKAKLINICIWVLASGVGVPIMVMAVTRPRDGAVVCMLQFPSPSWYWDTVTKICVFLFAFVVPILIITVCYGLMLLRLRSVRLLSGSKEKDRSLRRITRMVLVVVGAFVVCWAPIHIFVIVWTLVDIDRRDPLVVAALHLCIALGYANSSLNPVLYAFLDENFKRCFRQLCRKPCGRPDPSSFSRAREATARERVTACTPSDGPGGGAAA
Summary of the method: as §2

Human opioid (ORL1) = molecular target: T5, Human opioid (ORL1) (Homo sapiens, UniProt P41146); experiment: Radioligand binding, human opioid ORL1 membranes, FlashPlate, [125I]-Nociceptin; conditions: compound at 10 μM
T5 construct: purchased Perkin Elmer Biosignal
T5 sequence (P41146 whole entry): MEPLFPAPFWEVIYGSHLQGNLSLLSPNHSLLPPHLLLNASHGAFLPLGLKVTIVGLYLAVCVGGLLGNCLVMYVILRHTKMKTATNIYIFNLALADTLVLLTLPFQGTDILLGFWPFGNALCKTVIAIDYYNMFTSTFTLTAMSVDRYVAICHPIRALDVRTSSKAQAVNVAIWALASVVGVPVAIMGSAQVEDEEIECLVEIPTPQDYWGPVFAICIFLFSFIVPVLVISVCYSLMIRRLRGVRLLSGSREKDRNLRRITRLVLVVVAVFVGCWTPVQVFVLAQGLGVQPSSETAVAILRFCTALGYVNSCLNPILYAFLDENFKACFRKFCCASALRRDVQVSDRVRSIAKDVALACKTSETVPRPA
Summary of the method: as §2

[1] = molecular target: T6, Human neuropeptide Y (NPY-Y1) (Homo sapiens, UniProt P25929); experiment: Radioligand binding, human neuropeptide Y NPY-Y1 membranes, FlashPlate, [125I]-PYY; conditions: compound at 10 μM
T6 construct: purchased Perkin Elmer Biosignal
T6 sequence (P25929 1-384): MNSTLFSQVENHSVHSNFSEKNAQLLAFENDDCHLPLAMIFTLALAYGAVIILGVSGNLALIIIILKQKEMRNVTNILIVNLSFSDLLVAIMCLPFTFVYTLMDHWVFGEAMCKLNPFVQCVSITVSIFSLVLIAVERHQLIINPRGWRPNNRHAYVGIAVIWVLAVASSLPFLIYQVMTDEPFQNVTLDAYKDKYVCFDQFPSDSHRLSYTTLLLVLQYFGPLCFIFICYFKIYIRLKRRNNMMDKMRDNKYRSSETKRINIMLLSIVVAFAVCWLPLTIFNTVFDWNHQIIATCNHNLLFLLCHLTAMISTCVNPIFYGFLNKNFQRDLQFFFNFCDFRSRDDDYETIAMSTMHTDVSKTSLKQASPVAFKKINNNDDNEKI
Summary of the method: as §2

Human Melanocortin (MC3) = molecular target: T7, Human Melanocortin (MC3) (Homo sapiens, UniProt P41968); experiment: Radioligand binding, human melanocortin MC3 membranes, FlashPlate, [125I]-NDP-αMSH; conditions: compound at 10 μM
T7 construct: purchased Perkin Elmer Biosignal
T7 sequence (P41968 whole entry): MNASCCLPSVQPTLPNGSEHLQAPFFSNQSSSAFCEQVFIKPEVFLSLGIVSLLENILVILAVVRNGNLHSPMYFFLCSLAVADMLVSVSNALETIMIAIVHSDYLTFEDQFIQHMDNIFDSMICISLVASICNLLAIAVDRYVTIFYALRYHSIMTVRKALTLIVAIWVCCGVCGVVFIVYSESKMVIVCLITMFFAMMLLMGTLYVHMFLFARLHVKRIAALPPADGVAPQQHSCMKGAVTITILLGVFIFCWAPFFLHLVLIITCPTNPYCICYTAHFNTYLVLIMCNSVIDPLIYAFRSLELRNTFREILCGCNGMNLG
Summary of the method: as §2

Human κ-Opioid (KOP) = molecular target: T8, Human κ-Opioid (KOP) (Homo sapiens, UniProt P41145); experiment: Radioligand binding, human κ-opioid (KOP) membranes, filtration, [3H]-Diprenorphine; conditions: compound at 10 μM
T8 construct: purchased Perkin Elmer Biosignal
T8 sequence (P41145 whole entry): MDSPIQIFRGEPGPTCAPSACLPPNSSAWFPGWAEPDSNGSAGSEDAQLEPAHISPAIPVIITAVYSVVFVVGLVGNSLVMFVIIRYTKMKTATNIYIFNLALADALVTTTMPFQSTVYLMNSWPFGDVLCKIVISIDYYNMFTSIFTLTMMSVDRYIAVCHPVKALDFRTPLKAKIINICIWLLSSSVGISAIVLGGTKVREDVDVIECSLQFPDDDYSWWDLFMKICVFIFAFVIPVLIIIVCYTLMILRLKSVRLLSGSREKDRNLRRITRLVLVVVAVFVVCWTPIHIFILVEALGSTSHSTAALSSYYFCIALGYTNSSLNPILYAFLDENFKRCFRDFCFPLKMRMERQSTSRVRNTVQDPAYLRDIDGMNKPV
Summary of the method: as §1

[2] = molecular target: T9, Human melanin-concentrating hormone (MCH1) (Homo sapiens, UniProt Q99705); experiment: Radioligand binding, human melanin-concentrating hormone MCH1 membranes, FlashPlate, [125I]-S36057; conditions: compound at 10 μM; for A6: inhibition of radioligand binding, human melanin-concentrating hormone (MCH1): [125I]-S36057
T9 construct: purchased Perkin Elmer Biosignal
T9 sequence (Q99705 whole entry): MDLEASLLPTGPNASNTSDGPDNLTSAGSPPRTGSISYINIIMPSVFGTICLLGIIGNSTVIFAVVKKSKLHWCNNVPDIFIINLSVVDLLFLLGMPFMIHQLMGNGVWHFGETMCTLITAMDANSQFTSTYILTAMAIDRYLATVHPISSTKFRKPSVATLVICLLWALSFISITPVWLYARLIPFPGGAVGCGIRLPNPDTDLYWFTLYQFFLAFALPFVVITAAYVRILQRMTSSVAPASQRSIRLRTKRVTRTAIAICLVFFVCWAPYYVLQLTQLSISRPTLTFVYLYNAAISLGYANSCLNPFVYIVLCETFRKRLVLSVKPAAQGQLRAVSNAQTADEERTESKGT
Summary of the method: as §2

Mouse urotensin (mUR2) = molecular target: T10, Mouse urotensin (mUR2) (Mus musculus, UniProt Q8VIH9); experiment: Radioligand binding, mouse urotensin mUR2 membranes, FlashPlate, [125I]-Urotensin II; conditions: compound at 10 μM
T10 construct: purchased Perkin Elmer Biosignal
T10 sequence (Q8VIH9 1-385): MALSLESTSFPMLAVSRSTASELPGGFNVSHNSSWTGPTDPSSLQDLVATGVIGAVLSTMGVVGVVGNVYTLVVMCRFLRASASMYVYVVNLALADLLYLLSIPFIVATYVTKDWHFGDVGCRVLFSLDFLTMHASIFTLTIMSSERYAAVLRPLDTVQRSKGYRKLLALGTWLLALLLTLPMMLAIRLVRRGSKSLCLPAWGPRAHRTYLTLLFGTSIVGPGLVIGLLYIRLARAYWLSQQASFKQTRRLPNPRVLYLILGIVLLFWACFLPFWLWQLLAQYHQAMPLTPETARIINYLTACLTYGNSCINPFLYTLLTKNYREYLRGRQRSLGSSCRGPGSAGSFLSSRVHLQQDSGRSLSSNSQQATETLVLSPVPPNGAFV
Summary of the method: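 Cloned mouse urotensin (mUR2) receptor membranes from Perkin Elmer Biosignal were immobilized in FlashPlate microplates using a proprietary coating. Each well got 19.5 μl buffer, then 0.5 μl of DMSO, reference ligand, or compound. Adding 5 μl of [125I]-Urotensin II, diluted to 5× final concentration in binding buffer, started binding. Plates were sealed with TopSeal-A and incubated 1 hour at room temperature in the dark. Wells were counted for 30 seconds each on a TopCount after a 60-second delay, and percentage inhibition was calculated.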

Human Melanocortin (MC4) = molecular target: T11, Human Melanocortin (MC4) (Homo sapiens, UniProt P32245); experiment: Radioligand binding, human melanocortin MC4 membranes, FlashPlate, [125I]-NDP-αMSH; conditions: compound at 10 μM
T11 construct: purchased Perkin Elmer Biosignal
T11 sequence (P32245 whole entry): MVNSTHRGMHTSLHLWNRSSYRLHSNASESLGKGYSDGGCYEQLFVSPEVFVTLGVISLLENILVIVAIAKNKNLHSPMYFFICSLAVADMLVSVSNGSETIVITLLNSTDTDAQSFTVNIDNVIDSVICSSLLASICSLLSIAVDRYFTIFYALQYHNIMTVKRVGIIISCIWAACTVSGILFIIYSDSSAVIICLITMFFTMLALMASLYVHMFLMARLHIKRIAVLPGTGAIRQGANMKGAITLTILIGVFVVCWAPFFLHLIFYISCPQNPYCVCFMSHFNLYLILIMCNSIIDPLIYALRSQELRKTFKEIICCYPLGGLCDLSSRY
Summary of the method: as §2

T1 sequence (P25103 whole entry): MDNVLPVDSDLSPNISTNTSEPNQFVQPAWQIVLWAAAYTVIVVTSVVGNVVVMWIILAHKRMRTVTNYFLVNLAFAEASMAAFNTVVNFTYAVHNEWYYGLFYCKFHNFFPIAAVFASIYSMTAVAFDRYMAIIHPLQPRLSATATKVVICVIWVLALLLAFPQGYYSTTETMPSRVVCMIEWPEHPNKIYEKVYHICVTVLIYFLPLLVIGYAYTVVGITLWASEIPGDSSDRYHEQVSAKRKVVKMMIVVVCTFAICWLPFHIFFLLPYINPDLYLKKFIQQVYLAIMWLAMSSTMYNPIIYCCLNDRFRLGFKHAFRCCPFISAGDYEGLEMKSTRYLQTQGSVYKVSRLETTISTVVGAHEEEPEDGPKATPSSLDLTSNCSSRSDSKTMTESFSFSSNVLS

| SMILES | A7: inhibition of radioligand binding, human μ-opioid (MOP) (Human μ-opioid (MOP); [3H]-Naloxone) | A5: inhibition of radioligand binding, human melanocortin (MC5) (Human melanocortin (MC5); [125I]-NDP-αMSH) | A1: inhibition of radioligand binding, human δ-opioid (DOP) (Human δ-opioid (DOP); [3H]-Bremazocine) | A10: inhibition of radioligand binding, human opioid (ORL1) (Human opioid (ORL1); [125I]-Nociceptin) | A9: inhibition of radioligand binding, human neuropeptide Y (NPY-Y1) ([1]; [125I]-PYY) | A3: inhibition of radioligand binding, human melanocortin (MC3) (Human Melanocortin (MC3); [125I]-NDP-αMSH) | A2: inhibition of radioligand binding, human κ-opioid (KOP) (Human κ-Opioid (KOP); [3H]-Diprenorphine) | A6: inhibition of radioligand binding, human melanin-concentrating hormone (MCH1) [2] | A11: inhibition of radioligand binding, mouse urotensin (mUR2) (Mouse urotensin (mUR2); [125I]-Urotensin II) | A4: inhibition of radioligand binding, human melanocortin (MC4) (Human Melanocortin (MC4); [125I]-NDP-αMSH) | A8: inhibition of radioligand binding, human neurokinin (NK1) (Human neurokinin (NK1); [125I]-Substance P) | other results |
| --- | --- | --- | --- | --- | --- | --- | --- | --- | --- | --- | --- | --- |
| COCC1OC(OCCc2ccccc2)C(NC(=O)CNC(=N)N)C(OCc2ccc(-c3ccccc3)cc2)C1O (stereo not shown) [compound 548] | − (“−” indicates less than 50% inhibition at 10 μM) | + (“+” indicates greater than 50% inhibition at 10 μM) | − (“−” indicates less than 50% inhibition at 10 μM) | − (“−” indicates less than 50% inhibition at 10 μM) | − (“−” indicates less than 50% inhibition at 10 μM) | − (“−” indicates less than 50% inhibition at 10 μM) | − (“−” indicates less than 50% inhibition at 10 μM) | − (“−” indicates less than 50% inhibition at 10 μM) | − (“−” indicates less than 50% inhibition at 10 μM) | − (“−” indicates less than 50% inhibition at 10 μM) |  | A8: inhibition of radioligand binding, human neurokinin (NK1) (Human neurokinin (NK1); [125I]-Substance P, 10 µM): + (“+” indicates greater than 50% inhibition at 10 μM) |
| CSC1O[C@H](COCc2ccc(Cl)cc2)[C@@H](O)[C@@H](OCc2ccc(-c3ccccc3)cc2)[C@H]1NC(=O)CN (stereo partly shown) [compound 288] | − (“−” indicates less than 50% inhibition at 10 μM) | − (“−” indicates less than 50% inhibition at 10 μM) | − (“−” indicates less than 50% inhibition at 10 μM) | − (“−” indicates less than 50% inhibition at 10 μM) | − (“−” indicates less than 50% inhibition at 10 μM) | − (“−” indicates less than 50% inhibition at 10 μM) | − (“−” indicates less than 50% inhibition at 10 μM) | − (“−” indicates less than 50% inhibition at 10 μM) | − (“−” indicates less than 50% inhibition at 10 μM) | − (“−” indicates less than 50% inhibition at 10 μM) | + (“+” indicates greater than 50% inhibition at 10 μM) |  |
| NCCCC(=O)NC1C(OCc2ccccc2)OC(COCc2ccc3ccccc3c2)C(O)C1OCc1ccccc1 (stereo not shown) [compound 378] | − (“−” indicates less than 50% inhibition at 10 μM) | + (“+” indicates greater than 50% inhibition at 10 μM) | − (“−” indicates less than 50% inhibition at 10 μM) | − (“−” indicates less than 50% inhibition at 10 μM) | − (“−” indicates less than 50% inhibition at 10 μM) | − (“−” indicates less than 50% inhibition at 10 μM) | − (“−” indicates less than 50% inhibition at 10 μM) | − (“−” indicates less than 50% inhibition at 10 μM) | − (“−” indicates less than 50% inhibition at 10 μM) | + (“+” indicates greater than 50% inhibition at 10 μM) | + (“+” indicates greater than 50% inhibition at 10 μM) |  |
| N=C(N)NCCC(=O)NC1C(OCc2ccc(Cl)cc2)OC(COCc2ccccc2)C(O)C1OCc1ccc(-c2ccccc2)cc1 (stereo not shown) [compound 433] |  |  |  |  |  |  |  |  |  |  |  | A8: inhibition of radioligand binding (Human neurokinin (NK1); [125I]-Substance P, human NK1 membranes): + (“+” indicates greater than 50% inhibition at 10 μM); A7: inhibition of radioligand binding (Human μ-opioid (MOP); [3H]-Naloxone, human MOP membranes): − (“−” indicates less than 50% inhibition at 10 μM); A5: inhibition of radioligand binding (Human melanocortin (MC5); [125I]-NDP-αMSH, human MC5 membranes): + (“+” indicates greater than 50% inhibition at 10 μM); A1: inhibition of radioligand binding (Human δ-opioid (DOP); [3H]-Bremazocine, human DOP membranes): − (“−” indicates less than 50% inhibition at 10 μM); A10: inhibition of radioligand binding (Human opioid (ORL1); [125I]-Nociceptin, human ORL1 membranes): − (“−” indicates less than 50% inhibition at 10 μM); A9: inhibition of radioligand binding ([1]; [125I]-PYY, human NPY-Y1 membranes): − (“−” indicates less than 50% inhibition at 10 μM); A3: inhibition of radioligand binding (Human Melanocortin (MC3); [125I]-NDP-αMSH, human MC3 membranes): − (“−” indicates less than 50% inhibition at 10 μM); A2: inhibition of radioligand binding (Human κ-Opioid (KOP); [3H]-Diprenorphine, human KOP membranes): − (“−” indicates less than 50% inhibition at 10 μM); A6: inhibition of radioligand binding ([2]; [125I]-S36057, human MCH1 membranes): + (“+” indicates greater than 50% inhibition at 10 μM); A11: inhibition of radioligand binding (Mouse urotensin (mUR2); [125I]-Urotensin II, mouse mUR2 membranes): − (“−” indicates less than 50% inhibition at 10 μM); A4: inhibition of radioligand binding (Human Melanocortin (MC4); [125I]-NDP-αMSH, human MC4 membranes): + (“+” indicates greater than 50% inhibition at 10 μM) |
| COC[C@H]1OC(OCc2ccc(Cl)cc2)[C@H](NC(=O)CCCNC(=N)N)[C@@H](OCc2ccc(-c3ccccc3)cc2)[C@@H]1O (stereo partly shown) [compound 30] |  |  |  |  |  |  |  |  |  |  |  | A8 radioligand binding inhibition (Human neurokinin (NK1); human neurokinin NK1 membranes): + (“+” indicates greater than 50% inhibition at 10 μM); A7 radioligand binding inhibition (Human μ-opioid (MOP); human μ-opioid (MOP) membranes): + (“+” indicates greater than 50% inhibition at 10 μM); A5 radioligand binding inhibition (Human melanocortin (MC5); human melanocortin MC5 membranes): + (“+” indicates greater than 50% inhibition at 10 μM); A1 radioligand binding inhibition (Human δ-opioid (DOP); human δ-opioid (DOP) membranes): − (“−” indicates less than 50% inhibition at 10 μM); A10 radioligand binding inhibition (Human opioid (ORL1); human ORL1 membranes): − (“−” indicates less than 50% inhibition at 10 μM); A9 radioligand binding inhibition ([1]; human NPY-Y1 membranes): − (“−” indicates less than 50% inhibition at 10 μM); A3 radioligand binding inhibition (Human Melanocortin (MC3); human melanocortin MC3 membranes): + (“+” indicates greater than 50% inhibition at 10 μM); A2 radioligand binding inhibition (Human κ-Opioid (KOP); human κ-opioid (KOP) membranes): − (“−” indicates less than 50% inhibition at 10 μM); A6 radioligand binding inhibition ([2]; human MCH1 membranes): + (“+” indicates greater than 50% inhibition at 10 μM); A11 radioligand binding inhibition (Mouse urotensin (mUR2); mouse urotensin mUR2 membranes): − (“−” indicates less than 50% inhibition at 10 μM); A4 radioligand binding inhibition (Human Melanocortin (MC4); human melanocortin MC4 membranes): + (“+” indicates greater than 50% inhibition at 10 μM) |
